Results taken from US6905852B1, “Herbicide-resistant protoporphyrinogen oxidase isolated from Nicotiana tabacum” (Nihon Nohyaku Co., Ltd., priority 1997, dated 2005).
Values after ≈ are worked out from the molar mass of the structure shown.

What was measured:
Experiment in all cases: MIC on MS agar medium, cross-resistance to herbicides
Type in all cases: cell-based, Nicotiana tabacum
ETR-056 = system: ETR-056
From the text: (§1) Further, cross-resistance of a resistant strain tolerant to herbicides with various modes of action was examined. Sensitivity to fomesafen (trade mark: FLEX) and oxadiazon (trade mark: RONSTAR), which are photobleaching herbicide and accumulate protoporphyrin IX; pyrazoxyfen (trademark: PAICER) which is a chlorophyll synthesis inhibitor and causes bleaching; DPX-84 and bialaphos (trademark: BASTA) and glyphosate (trademark: ROUNDUP) which are an inhibitor of the amino acid synthesis; butachlor (trademark: MACHETE) which is a protein synthesis inhibitor; propanil (trademark: STAM) which is an inhibitor of light synthesis photochemical system II and paraquat (trademark: PREEGLOX) which is an inhibitor of photosystem I and produces an active oxygen was compared. Into MS agar medium containing each herbicides, each resistant strain was transplanted and minimum inhibition concentration (MIC) was measured. […] From the above results, ETR-056 was thought to have resistance to an active oxygen caused by overproduction of superoxide dismutase, and ETR-253 was thought to have resistance to many herbicides caused by decreasing of a membrane permeability, and ETR-245 was thought to have resistance caused by mutation of a target enzyme or overproduction of a target enzyme.
(§2) MIC of compound A to the sensitive cell lines, ETR-056, ETR-245 and ETR-253 were measured.

ETR-245 = system: ETR-245
From the text: as §1, §2

Sensitive strain = details: sensitive cell line
From the text: as §1, §2

ETR-253 = system: ETR-253
From the text: as §1, §2

Q: What does the source list for `CCOC(=O)COc1cc(-c2nn(C)c(OC(F)F)c2Cl)c(F)cc1Cl` [Compound A, ethyl 2-chloro-5-(4-chloro-5-difluoromethoxy-1-methyl-1H-pyrazol-3-yl)-4-fluorophenoxyacetate]?
A: MIC (ETR-056): over 2,400 nM; MIC (ETR-245): over 2,400 nM; MIC (Sensitive strain): 5 nM (≈ 2.07 ng/mL); MIC (ETR-253): over 2,400 nM
